Assay results as given in patent US20170275275A1, “BENZENESULFONAMIDES USEFUL AS SODIUM CHANNEL INHIBITORS” (PFIZER INC., priority 2014, published 2017).
pIC50: −log10 of the molar value. Values after ≈ are worked out from the molar mass of the structure shown. Structures can show the parent of a compound that is named as a salt. Each block holds one compound with its values, some of them ahead of it.

Columns and labels:
[1] = molecular target: T1, Nav1.7 (or SCN9A) channel (Homo sapiens, UniProt Q15858); test: Nav1.7 (hSCN9A) channel block, PatchXpress (PX) whole-cell electrophysiology in stably transfected HEK cells; type: cell-based; conditions: for pIC50: estimated IC50 from single point electrophysiology data, PatchXpress platform, HEK cells expressing hSCN9A, clamped at V1/2 of inactivation, read-out: Nav1.7 EIC50
T1 construct: expressed in transfected cells
T1 sequence (Q15858 whole entry): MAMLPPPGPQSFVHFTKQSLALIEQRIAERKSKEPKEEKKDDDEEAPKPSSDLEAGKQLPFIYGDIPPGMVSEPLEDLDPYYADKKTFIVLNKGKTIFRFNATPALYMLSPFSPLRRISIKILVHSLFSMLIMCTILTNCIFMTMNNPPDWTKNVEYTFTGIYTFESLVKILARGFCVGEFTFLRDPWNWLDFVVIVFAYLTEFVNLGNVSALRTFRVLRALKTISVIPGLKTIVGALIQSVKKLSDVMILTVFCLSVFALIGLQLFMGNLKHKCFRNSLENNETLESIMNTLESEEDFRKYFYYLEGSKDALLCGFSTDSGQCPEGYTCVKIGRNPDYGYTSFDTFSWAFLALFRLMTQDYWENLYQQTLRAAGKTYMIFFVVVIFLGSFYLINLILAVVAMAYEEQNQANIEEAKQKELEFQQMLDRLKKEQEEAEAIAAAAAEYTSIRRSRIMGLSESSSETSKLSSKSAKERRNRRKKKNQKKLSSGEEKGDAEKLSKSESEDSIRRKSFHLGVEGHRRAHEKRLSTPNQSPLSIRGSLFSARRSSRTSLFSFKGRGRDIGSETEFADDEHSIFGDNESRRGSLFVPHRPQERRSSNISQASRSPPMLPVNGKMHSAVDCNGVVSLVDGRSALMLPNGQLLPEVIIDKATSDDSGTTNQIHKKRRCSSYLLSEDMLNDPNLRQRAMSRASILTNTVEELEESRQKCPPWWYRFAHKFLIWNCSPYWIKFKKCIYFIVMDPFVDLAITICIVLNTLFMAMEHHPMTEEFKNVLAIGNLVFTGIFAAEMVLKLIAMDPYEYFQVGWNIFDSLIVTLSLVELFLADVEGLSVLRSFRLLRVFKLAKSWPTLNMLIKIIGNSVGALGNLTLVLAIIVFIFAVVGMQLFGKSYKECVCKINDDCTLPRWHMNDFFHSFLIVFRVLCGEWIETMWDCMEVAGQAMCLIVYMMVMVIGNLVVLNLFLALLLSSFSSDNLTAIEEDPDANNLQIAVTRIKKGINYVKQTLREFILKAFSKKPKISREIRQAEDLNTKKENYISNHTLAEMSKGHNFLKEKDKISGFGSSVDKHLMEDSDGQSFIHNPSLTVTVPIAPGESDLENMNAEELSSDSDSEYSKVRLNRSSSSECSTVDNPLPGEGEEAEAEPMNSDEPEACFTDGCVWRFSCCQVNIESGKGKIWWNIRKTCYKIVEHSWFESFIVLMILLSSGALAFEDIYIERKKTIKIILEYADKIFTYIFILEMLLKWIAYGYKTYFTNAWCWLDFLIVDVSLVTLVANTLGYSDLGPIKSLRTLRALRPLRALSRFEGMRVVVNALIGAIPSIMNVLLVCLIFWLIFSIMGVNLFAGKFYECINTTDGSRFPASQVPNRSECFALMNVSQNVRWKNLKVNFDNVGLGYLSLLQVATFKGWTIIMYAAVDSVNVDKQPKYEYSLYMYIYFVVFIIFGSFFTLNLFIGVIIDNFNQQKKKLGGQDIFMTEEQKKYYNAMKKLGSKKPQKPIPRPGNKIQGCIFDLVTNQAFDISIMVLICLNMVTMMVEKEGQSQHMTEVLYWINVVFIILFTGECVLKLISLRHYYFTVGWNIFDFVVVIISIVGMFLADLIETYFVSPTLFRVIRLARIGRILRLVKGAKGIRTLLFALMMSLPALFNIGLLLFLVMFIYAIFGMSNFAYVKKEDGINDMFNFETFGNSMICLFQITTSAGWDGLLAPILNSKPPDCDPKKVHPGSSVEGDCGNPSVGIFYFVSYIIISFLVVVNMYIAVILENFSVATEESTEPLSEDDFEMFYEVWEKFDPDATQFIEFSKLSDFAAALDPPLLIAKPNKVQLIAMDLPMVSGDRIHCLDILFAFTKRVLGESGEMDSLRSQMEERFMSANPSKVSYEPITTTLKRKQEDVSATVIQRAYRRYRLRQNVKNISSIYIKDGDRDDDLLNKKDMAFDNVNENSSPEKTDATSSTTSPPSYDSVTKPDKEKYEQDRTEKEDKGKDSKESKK
Procedure: The ability of the compounds of formula (I) to block the Nav1.7 (or SCN9A) channel was measured using the assay described below.
Human Embryonic Kidney (HEK) cells were transfected with an hSCN9A construct using lipofectamine reagent (Invitrogen), using standard techniques. Cells stably expressing the hSCN9A constructs were identified by their resistance to G-418 (400 μg/ml). Clones were screened for expression using the whole-cell voltage-clamp technique.
HEK cells stably transfected with hSCN9A were maintained in DMEM medium supplemented with 10% heat-inactivated fetal bovine serum and 400 μg/ml G-418 in an incubator at 37° C. with a humidified atmosphere of 10% CO2. For HTS, cells were harvested from flasks by trypsinization and replated in an appropriate multi-well plate (typically 96 or 384 wells/plate) such that confluence would be achieved within 24 hours of plating. Cells were typically used for electrophysiological experiments within 24 to 72 hours after plating.
For conventional whole-cell voltage clamp experiments cells were removed from the culture flask by brief trypsinization and re-plated at low density onto glass cover slips. Cover slips containing HEK cells expressing hSCN9A were placed in a bath on the stage of an inverted microscope and perfused (approximately 1 ml/minutes) with extracellular solution of the following composition: 138 mM NaCl, 2 mM CaCl2, 5.4 mM KCl, 1 mM MgCl2, 10 mM glucose, and 10 mM HEPES, pH 7.4, with NaOH. […] The osmolarity of the extracellular and intracellular solutions was 300 mOsm/kg and 295 mOsm/kg, respectively. All recordings were made at room temperature (22-24° C.) using AXOPATCH 200B amplifiers and PCLAMP software (Axon Instruments, Burlingame, Calif.). hSCN9A currents in HEK cells were measured using the whole-cell configuration of the patch-clamp technique (Hamill et al., 1981). Uncompensated series resistance was typically 2 to 5 mega ohms and >85% series resistance compensation was routinely achieved. […] Current records were acquired at 20 to 50 KHz and filtered at 5 to 10 KHz.
HEK cells stably transfected with hSCN9A were viewed under Hoffman contrast optics and placed in front of an array of flow pipes emitting either control or compound-containing extracellular solutions.
The voltage-dependence of inactivation was determined by applying a series of depolarizing prepulses (8 sec long in 10 mV increments) from a negative holding potential. The voltage was then immediately stepped to 0 mV to assess the magnitude of the sodium current. Currents elicited at 0 mV were plotted as a function of prepulse potential to allow estimation of the voltage at which 50% of the channels were inactivated (midpoint of inactivation or V1/2). Compounds were tested for their ability to inhibit hSCN9A sodium channels by activating the channel with a 20 msec voltage step […] to 0 mV following an 8 second conditioning prepulse to the empirically determined V1/2. Compound effect (% inhibition) was determined by difference in current amplitude before and after application of test compounds. For ease of comparison, “estimated IC-50” (EIC50) values were calculated from single point electrophysiology data by the following equation, (tested concentration, nM)×(100-% inhibition/% inhibition). Inhibition values <20% and >80% were excluded from the calculation.
Electrophysiological assays were conducted with PatchXpress 7000 hardware and associated software (Molecular Devices Corp). All assay buffers and solutions were identical to those used in conventional whole-cell voltage clamp experiments described above. hSCN9A cells were grown as above to 50%-80% confluency and harvested by trypsinization. Trypsinized cells were washed and resuspended in extracellular buffer at a concentration of 1×10^6 cells/ml. The onboard liquid handling facility of the PatchXpress was used for dispensing cells and application of test compounds.

[2] = Aqueous solubility, shake-flask method; type: physicochemical; conditions: aqueous buffer, thermodynamic from solid
Procedure: Aqueous solubility data were generated via a “shake-flask” method where an excess of compound was added to a buffer (typically phosphate buffered saline at pH 7.4) and shaken for a period of 18 hours at room temperature. After this time any excess solid was removed by double centrifugation to obtain a saturated aqueous solution. The amount of compound solubilised was quantified by HPLC-UV or LC-MS against a standard calibration curve.
The solubility data generated are set out below. Where a greater than figure is quoted, all available compound was solubilised and saturation was not achieved in the conditions employed.

[3] = pH 7.5, shaken 18 hours at room temperature
[4] = pH 7.4, shaken 18 hours at room temperature

SMILES: O=S(=O)(Nc1nncs1)c1cc(Cl)c(Oc2ccc(-c3cccc(C(F)(F)F)c3)cc2-c2ccnc(CNCCC3CCNCC3)c2)cc1F [Example 6, 5-Chloro-2-fluoro-4-{[3-(2-{[(2-piperidin-4-ylethyl)amino]methyl}pyridin-4-yl)-3′-(trifluoromethyl)biphenyl-4-yl]oxy}-N-1,3,4-thiadiazol-2-ylbenzenesulfonamide bis-formate salt]
pIC50 [1]: 8.68 | solubility at 18 h ([2]; pH 5.0, shaken 18 hours at room temperature): > 2300 µg/mL | solubility at 18 h [2, 3]: < 500 µg/mL

SMILES: NCc1cc(-c2cc(-c3cccc(C(F)(F)F)c3)ccc2Oc2cc(F)c(S(=O)(=O)Nc3nncs3)cc2Cl)ccn1 [Example 7, 4-({3-[2-(Aminomethyl)pyridin-4-yl]-3′-(trifluoromethyl)biphenyl-4-yl}oxy)-5-chloro-2-fluoro-N-1,3,4-thiadiazol-2-ylbenzenesulfonamide bis-formate salt]
pIC50 [1]: 8.82 | solubility at 18 h ([2]; pH 7.2, shaken 18 hours at room temperature): 0.5 µg/mL

SMILES: COCCOCCOCCOCCOCCOCCOCCOCCOCCOCCOCCOCCNCc1cc(-c2cc(-c3cccc(C(F)(F)F)c3)ccc2Oc2ccc(S(=O)(=O)Nc3ncns3)cc2C#N)ccn1 [Example 12, 3-cyano-4-({3-[2-(2,5,8,11,14,17,20,23,26,29,32,35-dodecaoxa-38-azanonatriacontan-39-yl)pyridin-4-yl]-3′-(trifluoromethyl)biphenyl-4-yl}oxy)-N-(1,2,4-thiadiazol-5-yl)benzenesulfonamide]
pIC50 [1]: 8.64 | solubility at 18 h [2, 3]: 612 µg/mL (≈ 532 µM)

SMILES: COCCOCCOCCOCCNCc1cc(-c2cc(-c3cccc(C(F)(F)F)c3)ccc2Oc2ccc(S(=O)(=O)Nc3ncns3)cc2C#N)ccn1 [Example 15, 4-((3-(2-(5,8,11,14-tetraoxa-2-azapentadecyl)pyridin-4-yl)-3′-(trifluoromethyl)-[1,1′-biphenyl]-4-yl)oxy)-3-cyano-N-(1,2,4-thiadiazol-5-yl)benzenesulfonamide]
pIC50 [1]: 9.00 | solubility at 18 h [2, 3]: 110 µg/mL (≈ 138 µM)

SMILES: COCCOCCOCCOCCOCCOCCOCCOCCOCCOCCOCCOCCC(=O)N1CCC(CCNCc2cc(-c3cc(-c4cccc(C(F)(F)F)c4)ccc3Oc3ccc(S(=O)(=O)Nc4ncns4)cc3C#N)ccn2)CC1 [Example 17, 4-((3-(2-(((2-(1-(2,5,8,11,14,17,20,23,26,29,32,35-dodecaoxaoctatriacontan-38-oyl)piperidin-4-yl)ethyl)amino)methyl)pyridin-4-yl)-3′-(trifluoromethyl)-[1,1′-biphenyl]-4-yl)oxy)-3-cyano-N-(1,2,4-thiadiazol-5-yl)benzenesulfonamide]
inhibition at 0.01 µM ([1]; HEK293, Nav1.7, PatchXpress, 10 nM, read-out: % inhibition at 10 nM dose): 87.4% | pIC50 [1]: > 8.00 | solubility at 18 h [2, 4]: > 2300 µg/mL

SMILES: N#Cc1cc(S(=O)(=O)Nc2ncns2)ccc1Oc1ccc(-c2cccc(C(F)(F)F)c2)cc1-c1ccnc(CNCCC2CCNCC2)c1 [Example 18b, 3-Cyano-4-{[3-(2-{[(2-piperidin-4-ylethyl)amino]methyl}pyridin-4-yl)-3′-(trifluoromethyl)biphenyl-4-yl]oxy}-N-1,2,4-thiadiazol-5-ylbenzenesulfonamide trihydrochloride salt]
solubility at 18 h [2, 4]: > 10000 µg/mL

SMILES: COCCOCCOCCOCCOCCOCCOCCOCCOCCOCCOCCOCCC(=O)NCc1cc(-c2cc(-c3cccc(C(F)(F)F)c3)ccc2Oc2ccc(S(=O)(=O)Nc3ncns3)cc2C#N)ccn1 [Example 19, N-((4-(4-(4-(N-(1,2,4-thiadiazol-5-yl)sulfamoyl)-2-cyanophenoxy)-3′-(trifluoromethyl)-[1,1′-biphenyl]-3-yl)pyridin-2-yl)methyl)-2,5,8,11,14,17,20,23,26,29,32,35-dodecaoxaoctatriacontan-38-amide]
pIC50 [1]: 7.76 | solubility at 18 h [2, 3]: > 3 µg/mL

SMILES: COCCOCCOCCOCCO[C@@H]1CCN(Cc2cc(-c3cc(-c4cccc(C(F)(F)F)c4)ccc3Oc3ccc(S(=O)(=O)Nc4ncns4)cc3C#N)ccn2)C1 [Example 21, (R)-4-((3-(2-((3-((2,5,8,11-tetraoxatridecan-13-yl)oxy)pyrrolidin-1-yl)methyl)pyridin-4-yl)-3′-(trifluoromethyl)-[1,1′-biphenyl]-4-yl)oxy)-3-cyano-N-(1,2,4-thiadiazol-5-yl)benzenesulfonamide trifluoroacetate salt]
pIC50 [1]: 8.10 | solubility at 18 h [2, 3]: 56 µg/mL

Next, values leading:

pIC50 [1]: 9.30 | solubility at 18 h [2, 3]: 3 µg/mL
SMILES: N#Cc1cc(S(=O)(=O)Nc2ncns2)ccc1Oc1ccc(-c2cccc(C(F)(F)F)c2)cc1-c1ccnc(CN)c1 [Example 26, 4-({3-[2-(Aminomethyl)pyridin-4-yl]-3′-(trifluoromethyl)biphenyl-4-yl}oxy)-3-cyano-N-1,2,4-thiadiazol-5-ylbenzenesulfonamide bis-formate salt]

pIC50 [1]: 7.62
SMILES: COCCOCCOCCOCCOCCOCCOCCOCCOCCOCCOCCOCCC(=O)N1CCC(CCNCc2cc(-c3cc(-c4cccc(C(F)(F)F)c4)ccc3Oc3cc(F)c(S(=O)(=O)Nc4cscn4)cc3Cl)ccn2)CC1 [Example 30, 5-chloro-2-fluoro-4-{[3-{2-[({2-[1-(38-oxo-2,5,8,11,14,17,20,23,26,29,32,35-dodecaoxaoctatriacontan-38-yl)piperidin-4-yl]ethyl}amino)methyl]pyridin-4-yl}-3′-(trifluoromethyl)biphenyl-4-yl]oxy}-N-(1,3-thiazol-4-yl)benzenesulfonamide hydrochloride salt]

pIC50 [1]: 8.01
SMILES: COCCOCCOCCOCCOCCOCCOCCOCCOCCOCCOCCOCCC(=O)N1CCC(CCNCc2cccc(-c3cc(-c4ccccc4)ccc3Oc3ccc(S(=O)(=O)Nc4ncns4)cc3C#N)c2)CC1 [Example 31, 3-cyano-4-({3″-[({2-[1-(38-oxo-2,5,8,11,14,17,20,23,26,29,32,35-dodecaoxaoctatriacontan-38-yl)piperidin-4-yl]ethyl}amino)methyl]-1,1′:3′,1″-terphenyl-4′-yl}oxy)-N-(1,2,4-thiadiazol-5-yl)benzenesulfonamide]

pIC50 [1]: 7.80
SMILES: COCCOCCOCCOCCOCCOCCOCCOCCOCCOCCOCCOCCC(=O)N1CCN(c2cc(-c3cc(-c4ccc(C(F)(F)F)cc4)ccc3Oc3cc(F)c(S(=O)(=O)Nc4nncs4)cc3Cl)ccn2)CC1 [Example 32, 5-chloro-2-fluoro-4-{[3-{2-[4-(38-oxo-2,5,8,11,14,17,20,23,26,29,32,35-dodecaoxaoctatriacontan-38-yl)piperazin-1-yl]pyridin-4-yl}-4′-(trifluoromethyl)biphenyl-4-yl]oxy}-N-(1,3,4-thiadiazol-2-yl)benzenesulfonamide]

pIC50 [1]: 8.77
SMILES: COCCOCCOCCOCCOCCOCCOCCOCCOCCOCCOCCOCCC(=O)N1CCC(CCNCc2cc(-c3cc(-c4cccc(C(F)(F)F)c4)ccc3Oc3cc(F)c(S(=O)(=O)Nc4nncs4)cc3Cl)ccn2)CC1 [Example 33, 5-chloro-2-fluoro-4-{[3-{2-[({2-[1-(38-oxo-2,5,8,11,14,17,20,23,26,29,32,35-dodecaoxaoctatriacontan-38-yl)piperidin-4-yl]ethyl}amino)methyl]pyridin-4-yl}-3′-(trifluoromethyl)biphenyl-4-yl]oxy}-N-(1,3,4-thiadiazol-2-yl)benzenesulfonamide formate salt]
